In ChEMBL document CHEMBL1158245, “Antifungal and molluscicidal saponins from Serjania salzmanniana” (J Nat Prod, 1996):

What was measured:
Biomphalaria alexandrina [1] = assay: Molluscicidal activity against Biomphalaria alexandrina assessed as number of dead snail at 20 ppm after 24 hrs; assay type: organism-based; conditions: in vivo
Biomphalaria alexandrina [2] = assay: Molluscicidal activity against Biomphalaria alexandrina assessed as number of dead snail at 20 ppm after 24 hrs allowed to recover for an additional 24 hrs; assay type: organism-based; conditions: in vivo
Biomphalaria alexandrina [3] = assay: Molluscicidal activity against Biomphalaria alexandrina assessed as number of dead snail at 20 ppm after 48 hrs; assay type: organism-based; conditions: in vivo
Biomphalaria alexandrina [4] = assay: Molluscicidal activity against Biomphalaria alexandrina assessed as number of dead snail at 10 ppm after 48 hrs; assay type: organism-based; conditions: in vivo
Candida albicans = assay: Antifungal activity against Candida albicans ATCC 10259 after 24 hrs by microplate broth assay; assay type: functional; conditions: ATCC 10259, 24 h
Cryptococcus neoformans = assay: Antifungal activity against Cryptococcus neoformans ATCC 36556 after 48 hrs by microplate broth assay; assay type: functional; conditions: ATCC 36556, 48 h
Aspergillus fumigatus = assay: Antifungal activity against Aspergillus fumigatus ATCC 13073 after 48 hrs by microplate broth assay; assay type: functional; conditions: ATCC 13073, 48 h
Biomphalaria alexandrina [5] = assay: Molluscicidal activity against Biomphalaria alexandrina assessed as number of dead snail at 10 ppm after 24 hrs; assay type: organism-based; conditions: in vivo
Biomphalaria alexandrina [6] = assay: Molluscicidal activity against Biomphalaria alexandrina assessed as number of dead snail at 10 ppm after 24 hrs allowed to recover for an additional 24 hrs; assay type: organism-based; conditions: in vivo

| Structure (SMILES) | Activity (Biomphalaria alexandrina [1]) | Activity (Biomphalaria alexandrina [2]) | Activity (Biomphalaria alexandrina [3]) | Activity (Biomphalaria alexandrina [4]) | MIC (Candida albicans) | MIC (Cryptococcus neoformans) | MIC (Aspergillus fumigatus) | Activity (Biomphalaria alexandrina [5]) | Activity (Biomphalaria alexandrina [6]) |
| --- | --- | --- | --- | --- | --- | --- | --- | --- | --- |
| C[C@@H]1O[C@@H](O[C@H]2[C@H](O[C@H]3CC[C@@]4(C)[C@@H](CC[C@]5(C)[C@@H]4CC=C4[C@@H]6CC(C)(C)CC[C@]6(C(=O)O)CC[C@]45C)[C@]3(C)CO)OC[C@H](O[C@@H]3O[C@H](CO)[C@@H](O)[C@H](O)[C@H]3O)[C@@H]2O)[C@H](O)[C@H](O)[C@H]1O [HEDERACOLCHISIDE A] | Active | Active | 100% | 90% | ≤ 16 µg/mL | ≤ 8 µg/mL | ≥ 250 µg/mL | – | – |
| C[C@@H]1O[C@@H](O[C@H]2[C@H](O[C@H]3CC[C@]4(C)[C@H]5CC=C6[C@@H]7CC(C)(C)CC[C@]7(C(=O)O)CC[C@@]6(C)[C@]5(C)CC[C@H]4[C@]3(C)C=O)OC[C@H](O[C@@H]3O[C@H](CO)[C@@H](O)[C@H](O)[C@H]3O)[C@@H]2O)[C@H](O)[C@H](O)[C@H]1O [SALZMANNIANOSIDE A] | Active | Active | 100% | 0% | ≤ 16 µg/mL | ≤ 8 µg/mL | ≥ 125 µg/mL | Not Active | Not Active |
| C[C@@H]1O[C@@H](O[C@H]2[C@H](O[C@H]3CC[C@@]4(C)[C@@H](CC[C@]5(C)[C@@H]4CC=C4[C@@H]6CC(C)(C)CC[C@]6(C(=O)O)CC[C@]45C)[C@]3(C)CO)OC[C@H](O[C@@H]3O[C@H](CO)[C@@H](O)[C@H](O)[C@H]3O)[C@@H]2O)[C@H](O)[C@H](O[C@@H]2OC[C@H](O)[C@H](O)[C@H]2O)[C@H]1O [SALZMANNIANOSIDE B] | – | – | 70% | 100% | ≥ 125 µg/mL | ≤ 8 µg/mL | ≥ 250 µg/mL | – | Active |
| C[C@@H]1O[C@@H](O[C@H]2[C@H](O[C@H]3CC[C@]4(C)[C@H]5CC=C6[C@@H]7CC(C)(C)CC[C@]7(C(=O)O)CC[C@@]6(C)[C@]5(C)CC[C@H]4C3(C)C)OC[C@H](O[C@@H]3O[C@H](CO)[C@@H](O)[C@H](O)[C@H]3O)[C@@H]2O)[C@H](O)[C@H](O)[C@H]1O [HEDERACOLCHISIDE A1] | Active | Active | 100% | 100% | – | – | – | Active | Active |
